PubChem BioAssay AID248 (DTP/NCI, 2004)
Where “and” joins values, the source holds several entries; their conditions need not be identical. Equal entries are not always repeated. Inconclusive results and toxic doses are left out. Cut-off read from the data, not from the text of the source: active = T/C of 150% or more; inactive = T/C below 125%.

Tested on: L1210 leukemia ip in BDF1 mice, survival T/C
Assay: NCI In Vivo Anticancer Drug Screen. Data for tumor model L1210 Leukemia (intraperitoneal) in B6D2F1 (BDF1) mice
Details: endpoint: mean survival time, higher = longer survival
Method in brief: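 Value reflects the ratio of survival in compound-treated mice to survival in vehicle-treated controls, with both groups carrying the same transplanted tumor.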

[1] = dose: 100.0 mg/kg/injection, schedule: Q04DX003 (ip), vehicle: saline with Tween-80
[2] = dose: 200.0 mg/kg/injection, schedule: Q04DX003 (ip), vehicle: saline with Tween-80
[3] = dose: 400.0 mg/kg/injection, schedule: Q04DX003 (ip), vehicle: saline with Tween-80
[4] = dose: 100.0 mg/kg/injection, schedule: Q01DX001 (ip), vehicle: Klucel (hydroxypropylcellulose) (HPC)
[5] = dose: 200.0 mg/kg/injection, schedule: Q01DX001 (ip), vehicle: Klucel (hydroxypropylcellulose) (HPC)
[6] = dose: 400.0 mg/kg/injection, schedule: Q01DX001 (ip), vehicle: Klucel (hydroxypropylcellulose) (HPC)
[7] = dose: 100.0 mg/kg/injection, schedule: Q01DX001 (ip), vehicle: saline
[8] = dose: 200.0 mg/kg/injection, schedule: Q01DX001 (ip), vehicle: saline
[9] = dose: 400.0 mg/kg/injection, schedule: Q01DX001 (ip), vehicle: saline
[10] = dose: 100.0 mg/kg/injection, schedule: Q04DX003 (ip), vehicle: Klucel (hydroxypropylcellulose) (HPC)
[11] = dose: 200.0 mg/kg/injection, schedule: Q04DX003 (ip), vehicle: Klucel (hydroxypropylcellulose) (HPC)
[12] = dose: 400.0 mg/kg/injection, schedule: Q04DX003 (ip), vehicle: Klucel (hydroxypropylcellulose) (HPC)
[13] = dose: 100.0 mg/kg/injection, schedule: Q01DX009 (ip), vehicle: acetone
[14] = dose: 200.0 mg/kg/injection, schedule: Q01DX009 (ip), vehicle: acetone

Measured: T/C

Oc1cccnc1CN1CCCCC1
inactive: dose: 25.0 mg/kg/injection, schedule: Q01DX009 (ip), vehicle: saline 100 % of control | dose: 50.0 mg/kg/injection, schedule: Q01DX009 (ip), vehicle: saline 91 % of control | dose: 50.0 mg/kg/injection, schedule: Q04DX003 (ip), vehicle: saline 97 % of control | dose: 100.0 mg/kg/injection, schedule: Q01DX009 (ip), vehicle: saline 96 % of control | dose: 100.0 mg/kg/injection, schedule: Q04DX003 (ip), vehicle: saline 97 % of control

CCCCCCC1N(Cc2ccccc2OC)CCCN1Cc1ccccc1OC
inactive: dose: 100.0 mg/kg/injection, schedule: Q01DX001 (ip), vehicle: carboxymethylcellulose (CMC) 100 % of control | dose: 200.0 mg/kg/injection, schedule: Q01DX001 (ip), vehicle: carboxymethylcellulose (CMC) 105 % of control | dose: 400.0 mg/kg/injection, schedule: Q01DX001 (ip), vehicle: carboxymethylcellulose (CMC) 94 % of control

C/C=C/C(=O)Nc1cccc(OC(=O)NCC)c1
inactive: [1] 95 % of control | [2] 93 % of control | [3] 98 % of control

CCC(Cl)COP(=O)(CC(Cl)CC)OC(C(C)C)P(=O)(OCC(Cl)CC)OCC(Cl)CC (stereo unspecified)
inactive: [4] 108 % of control | [5] 101 % of control | [6] 101 % of control

CCOC(=O)/C=C/C(=O)O.[Cu+2]
inactive: dose: 3.12 mg/kg/injection, schedule: Q04DX003 (ip), vehicle: saline 94 % of control | dose: 6.25 mg/kg/injection, schedule: Q04DX003 (ip), vehicle: saline 89 % of control and 91 % of control

CC(c1ccc([N+](=O)[O-])cc1)n1cnc2c(N(CCO)CCO)ncnc21 (stereo unspecified)
inactive: [7] 104 % of control | [8] 103 % of control | [9] 103 % of control

c1ccc2c(CCCc3nccc4ccccc34)nccc2c1
inactive: [4] 102 % of control | [10] 108 % of control | [5] 104 % of control | [11] 108 % of control | [6] 108 % of control | [12] 102 % of control

C=C(Cl)CSCCCS
inactive: [13] 108 % of control | dose: 130.0 mg/kg/injection, schedule: Q01DX009 (ip), vehicle: saline 116 % of control | [14] 123 % of control | dose: 200.0 mg/kg/injection, schedule: Q01DX009 (ip), vehicle: saline 120 % of control | dose: 300.0 mg/kg/injection, schedule: Q01DX009 (ip), vehicle: saline 120 % of control

COC(=O)c1cc(NC(=O)CC(=O)c2cccc(N)c2)cc(C(=O)OC)c1
inactive: [10] 104 % of control | [11] 96 % of control | [12] 94 % of control

CCOC(=O)c1ccc(N(CC2CO2)S(=O)(=O)c2ccc(C)cc2)cc1 (stereo unspecified)
inactive: [1] 105 % of control | [2] 90 % of control | [3] 92 % of control

O=C1c2ccccc2Cc2ccccc21
inactive: [7] 97 % of control | dose: 100.0 mg/kg/injection, schedule: Q04DX002 (ip), vehicle: gum acacia 103 % of control | [8] 95 % of control | dose: 200.0 mg/kg/injection, schedule: Q04DX002 (ip), vehicle: gum acacia 100 % of control | [9] 106 % of control | dose: 400.0 mg/kg/injection, schedule: Q04DX002 (ip), vehicle: gum acacia 106 % of control

NCC(NCc1ccccc1)(c1ccccc1)c1ccccc1
inactive: dose: 20.0 mg/kg/injection, schedule: Q04DX003 (ip), vehicle: Klucel (hydroxypropylcellulose) (HPC) 94 % of control | dose: 40.0 mg/kg/injection, schedule: Q04DX003 (ip), vehicle: Klucel (hydroxypropylcellulose) (HPC) 96 % of control | dose: 80.0 mg/kg/injection, schedule: Q04DX003 (ip), vehicle: Klucel (hydroxypropylcellulose) (HPC) 102 % of control

CC(C)CCCC(C)C1CCC2C3CCC45CC4C(=O)CCC5(C)C3CCC12C (stereo unspecified)
inactive: [13] 87 % of control and 96 % of control | [14] 103 % of control | dose: 400.0 mg/kg/injection, schedule: Q01DX009 (ip), vehicle: acetone 89 % of control and 94 % of control

COc1cc(/C=N/NC(=O)CNC(=O)c2ccccc2)ccc1O
inactive: dose: 100.0 mg/kg/injection, schedule: Q01DX009 (ip), vehicle: saline with Tween-80 102 % of control | dose: 200.0 mg/kg/injection, schedule: Q01DX009 (ip), vehicle: saline with Tween-80 102 % of control | dose: 400.0 mg/kg/injection, schedule: Q01DX009 (ip), vehicle: saline with Tween-80 101 % of control

COc1ccc2c(c1)C1(C)CCCC(C)C1=CC2=O (stereo unspecified)
inactive: dose: 25.0 mg/kg/injection, schedule: Q01DX001 (ip), vehicle: other 100 % of control | dose: 50.0 mg/kg/injection, schedule: Q01DX001 (ip), vehicle: other 100 % of control | dose: 100.0 mg/kg/injection, schedule: Q01DX001 (ip), vehicle: other 97 % of control

COc1cc([C@@H]2c3cc4c(cc3[C@H](O)[C@H]3COC(=O)[C@H]23)OCO4)cc(OC)c1OC
inactive: dose: 0.14 mg/kg/injection, schedule: Q01DX Z (ip), vehicle: carboxymethylcellulose (CMC) 95 % of control | dose: 0.27 mg/kg/injection, schedule: Q01DX Z (ip), vehicle: carboxymethylcellulose (CMC) 101 % of control | dose: 0.54 mg/kg/injection, schedule: Q01DX Z (ip), vehicle: carboxymethylcellulose (CMC) 108 % of control | dose: 1.08 mg/kg/injection, schedule: Q01DX Z (ip), vehicle: carboxymethylcellulose (CMC) 105 % of control and 120 % of control | dose: 1.62 mg/kg/injection, schedule: Q01DX Z (ip), vehicle: carboxymethylcellulose (CMC) 110 % of control | dose: 2.16 mg/kg/injection, schedule: Q01DX Z (ip), vehicle: carboxymethylcellulose (CMC) 95 % of control | dose: 15.0 mg/kg/injection, schedule: Q01DX001 (ip), vehicle: carboxymethylcellulose (CMC) 117 % of control | dose: 30.0 mg/kg/injection, schedule: Q01DX001 (ip), vehicle: carboxymethylcellulose (CMC) 111 % of control | dose: 60.0 mg/kg/injection, schedule: Q01DX001 (ip), vehicle: carboxymethylcellulose (CMC) 88 % of control

C=CCC[P+](c1ccccc1)(c1ccccc1)c1ccccc1
inactive: dose: 12.5 mg/kg/injection, schedule: Q04DX003 (ip), vehicle: Klucel (hydroxypropylcellulose) (HPC) 97 % of control | dose: 16.0 mg/kg/injection, schedule: Q04DX003 (ip), vehicle: Klucel (hydroxypropylcellulose) (HPC) 90 % of control | dose: 25.0 mg/kg/injection, schedule: Q04DX003 (ip), vehicle: Klucel (hydroxypropylcellulose) (HPC) 104 % of control | dose: 35.0 mg/kg/injection, schedule: Q04DX003 (ip), vehicle: Klucel (hydroxypropylcellulose) (HPC) 101 % of control | dose: 50.0 mg/kg/injection, schedule: Q04DX003 (ip), vehicle: Klucel (hydroxypropylcellulose) (HPC) 95 % of control and 103 % of control

c1ccc2ncccc2c1
inactive: [10] 101 % of control | [11] 95 % of control

Cc1cc([N+](=O)[O-])c(NCCOC(=O)c2ccccc2Cl)c([N+](=O)[O-])c1
inactive: dose: 100.0 mg/kg/injection, schedule: Q01DX009 (ip), vehicle: Klucel (hydroxypropylcellulose) (HPC) 102 % of control | dose: 200.0 mg/kg/injection, schedule: Q01DX009 (ip), vehicle: Klucel (hydroxypropylcellulose) (HPC) 103 % of control | dose: 400.0 mg/kg/injection, schedule: Q01DX009 (ip), vehicle: Klucel (hydroxypropylcellulose) (HPC) 102 % of control

CCCCOC(=O)C#CC(=O)OCCCC
inactive: dose: 6.25 mg/kg/injection, schedule: Q01DX009 (ip), vehicle: carboxymethylcellulose (CMC) 94 % of control | dose: 6.25 mg/kg/injection, schedule: Q04DX003 (ip), vehicle: carboxymethylcellulose (CMC) 100 % of control | dose: 12.5 mg/kg/injection, schedule: Q01DX009 (ip), vehicle: carboxymethylcellulose (CMC) 96 % of control | dose: 12.5 mg/kg/injection, schedule: Q04DX002 (ip), vehicle: carboxymethylcellulose (CMC) 95 % of control and 97 % of control | dose: 12.5 mg/kg/injection, schedule: Q04DX003 (ip), vehicle: carboxymethylcellulose (CMC) 97 % of control | dose: 25.0 mg/kg/injection, schedule: Q04DX002 (ip), vehicle: carboxymethylcellulose (CMC) 92 % of control and 95 % of control | dose: 25.0 mg/kg/injection, schedule: Q04DX003 (ip), vehicle: carboxymethylcellulose (CMC) 95 % of control | dose: 50.0 mg/kg/injection, schedule: Q04DX002 (ip), vehicle: carboxymethylcellulose (CMC) 90 % of control
